Measurements published in patent US9980943B2, “Methods of treating muscular dystrophy” (BOARD OF REGENTS OF THE NEVADA SYSTEM OF HIGHER EDUCATION, …, priority 2013, dated 2018).

Key:
Format in all cases: cell-based, mouse
[1] = system: α7 integrin (LacZ reporter in α7βgal+/− myoblasts); assay: Myoblast α7+/LacZ integrin FDG assay (Burkin assay in myoblasts, 96-well); conditions: α7+/LacZ myoblasts, 96-well; for fold induction at 0.5 µM / fold induction at 1 µM / fold induction at 5 µM / fold induction at 10 µM / fold induction at 20 µM / fold induction at 40 µM: Mus musculus, Myoblast, 48 h, read-out: Burkin Assay in Myoblasts, value relative to DMSO
[2] = system: β-galactosidase in CMV-LacZ C2C12 myotubes; assay: CMV-LacZ secondary screen in C2C12 myotubes (β-Gal stabilizing assay); conditions: for fold induction at 5 µM / fold induction at 10 µM / fold induction at 20 µM / fold induction at 40 µM: Mus musculus; for fold induction at 5 µM: C2C12, read-out: CMV-LACZ in Myotubes, signal relative to DMSO, 5 uM; for fold induction at 5 µM / fold induction at 10 µM / fold induction at 20 µM / fold induction at 40 µM / CMV-LACZ in Myotubes, signal relative to DMSO: C2C12 CMV-LacZ myotubes, fold relative to DMSO; for fold induction at 10 µM: C2C12, read-out: CMV-LACZ in Myotubes, signal relative to DMSO, 10 uM; for fold induction at 20 µM: C2C12, read-out: CMV-LACZ in Myotubes, signal relative to DMSO, 20 uM; for fold induction at 40 µM: C2C12, read-out: CMV-LACZ in Myotubes, signal relative to DMSO, 40 uM; for CMV-LACZ in Myotubes (β-galactosidase activity relative to DMSO): CMV-LacZ C2C12 myotubes, 96-well format
In short: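 Dose-response runs at 0.5–40 μM (0.5, 1, 5, 10, 20, 40 μM; N=2 per point) used a clonal C2C12 line carrying CMV-LacZ. Cells were assayed as myoblasts or as differentiated myotubes, and β-galactosidase levels were read with the FDG fluorogenic substrate.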

[3] = system: α7 integrin (LacZ reporter in α7+/LacZ myotubes); assay: Myotube α7 integrin FDG assay (Burkin assay in myotubes, 96-well); conditions: myotubes; for fold induction at 0.5 µM / fold induction at 1 µM / fold induction at 5 µM / fold induction at 10 µM / fold induction at 20 µM / fold induction at 40 µM: Mus musculus, Myotube, read-out: Burkin Assay in Myotubes (signal relative to DMSO)

Row | SMILES | Burkin Assay in Myoblasts, signal relative to DMSO ([1]; 0.5 uM) | Burkin Assay in Myoblasts, signal relative to DMSO ([1]; 1 uM) | Burkin Assay in Myoblasts, signal relative to DMSO ([1]; 5 uM) | Burkin Assay in Myoblasts, signal relative to DMSO ([1]; 10 uM) | CMV-LACZ in Myotubes, signal relative to DMSO ([2]; 5 uM) | CMV-LACZ in Myotubes, signal relative to DMSO ([2]; 10 uM) | CMV-LACZ in Myotubes, signal relative to DMSO ([2]; 20 uM) | CMV-LACZ in Myotubes, signal relative to DMSO ([2]; 40 uM) | Burkin Assay in Myoblasts, value relative to DMSO ([1]; 0.5 uM) | Burkin Assay in Myoblasts, value relative to DMSO ([1]; 1 uM) | Burkin Assay in Myoblasts, value relative to DMSO ([1]; 5 uM) | Burkin Assay in Myoblasts, value relative to DMSO ([1]; 10 uM) | Burkin Assay in Myoblasts, value relative to DMSO ([1]; 20 uM) | Burkin Assay in Myoblasts, value relative to DMSO ([1]; 40 uM) | Burkin Assay in Myotubes (signal relative to DMSO) ([3]; 0.5 uM) | Burkin Assay in Myotubes (signal relative to DMSO) ([3]; 1 uM) | Burkin Assay in Myotubes (signal relative to DMSO) ([3]; 5 uM) | Burkin Assay in Myotubes (signal relative to DMSO) ([3]; 10 uM) | Burkin Assay in Myotubes (signal relative to DMSO) ([3]; 20 uM) | Burkin Assay in Myotubes (signal relative to DMSO) ([3]; 40 uM) | also measured
1 | Cc1ccc(NC(=O)C2CCCCC2C(=O)O)cc1C (stereo not drawn) [MLS000850824-01] | – | – | – | – | – | – | – | – | – | – | – | – | – | – | – | – | – | – | – | – | fold induction at 0.5 µM ([1]; 0.5 uM): 1.17; fold induction at 1 µM ([1]; 1 uM): 1.27; fold induction at 5 µM ([1]; 5 uM): 1.08; fold induction at 10 µM ([1]; 10 uM): 1.08; fold induction at 20 µM ([1]; 20 uM): 0.986; fold induction at 40 µM ([1]; 40 uM): 1.06; fold induction at 5 µM [2]: 0.885; fold induction at 10 µM [2]: 0.992; fold induction at 20 µM [2]: 0.995; fold induction at 40 µM [2]: 0.946; fold induction at 0.5 µM ([3]; 0.5 uM): 0.908; fold induction at 1 µM ([3]; 1 uM): 1.09; fold induction at 5 µM ([3]; 5 uM): 0.99; fold induction at 10 µM ([3]; 10 uM): 1.07; fold induction at 20 µM ([3]; 20 uM): 1.14; fold induction at 40 µM ([3]; 40 uM): 1.21
2 | Cc1nc2c(cnn2-c2ccccc2)c(=O)n1/N=C/c1ccccc1 [MLS000860538-01] | 1.02 | 1.033 | 1.078 | 1.115 | 1.001 | 0.9613 | 1.017 | 0.9667 | – | – | – | – | – | – | – | – | – | – | – | – | Burkin Assay in Myoblasts, signal relative to DMSO ([1]; 20 uM): 0.958; Burkin Assay in Myoblasts, signal relative to DMSO ([1]; 40 uM): 0.9783; Burkin Assay in Myotubes, α7 integrin LacZ reporter signal relative to DMSO ([3]; 0.5 uM): 0.985; Burkin Assay in Myotubes, α7 integrin LacZ reporter signal relative to DMSO ([3]; 1 uM): 1.102; Burkin Assay in Myotubes, α7 integrin LacZ reporter signal relative to DMSO ([3]; 5 uM): 1.319; Burkin Assay in Myotubes, α7 integrin LacZ reporter signal relative to DMSO ([3]; 10 uM): 1.412; Burkin Assay in Myotubes, α7 integrin LacZ reporter signal relative to DMSO ([3]; 20 uM): 0.9635; Burkin Assay in Myotubes, α7 integrin LacZ reporter signal relative to DMSO ([3]; 40 uM): 0.9403
3 | NC(=O)c1cccnc1Oc1ccc(Cl)cc1Cl [MLS000861434-01] | 0.9464 | 1.028 | 0.9133 | 0.9772 | 0.8844 | 0.8027 | 0.8429 | 0.8381 | – | – | – | – | – | – | – | – | – | – | – | – | Burkin Assay in Myoblasts, signal relative to DMSO ([1]; 20 uM): 0.8777; Burkin Assay in Myoblasts, signal relative to DMSO ([1]; 40 uM): 0.9322; Burkin Assay in Myotubes, α7 integrin LacZ reporter signal relative to DMSO ([3]; 0.5 uM): 0.9593; Burkin Assay in Myotubes, α7 integrin LacZ reporter signal relative to DMSO ([3]; 1 uM): 1.066; Burkin Assay in Myotubes, α7 integrin LacZ reporter signal relative to DMSO ([3]; 5 uM): 0.9788; Burkin Assay in Myotubes, α7 integrin LacZ reporter signal relative to DMSO ([3]; 10 uM): 1.101; Burkin Assay in Myotubes, α7 integrin LacZ reporter signal relative to DMSO ([3]; 20 uM): 0.8762; Burkin Assay in Myotubes, α7 integrin LacZ reporter signal relative to DMSO ([3]; 40 uM): 1.058
4 | CCCS(=O)(=O)N1CCCC(C(=O)c2cccc(Cl)c2)C1 (stereo not drawn) [MLS000862690-01] | – | – | – | – | 0.8684 | 0.8943 | 0.9323 | 1.018 | 1.029 | 1.027 | 1.009 | 1.004 | 0.8717 | 0.9753 | 1.125 | 0.9576 | 0.5941 | 0.9481 | 1.0131 | 1.0763 | –
5 | COc1cccc(NC(=O)c2ccc3c(c2)CCCC3)c1 [MLS000879190-01] | – | – | – | – | – | – | – | – | – | – | – | – | – | – | – | – | – | – | – | – | fold induction at 0.5 µM ([1]; 0.5 uM): 1.1; fold induction at 1 µM ([1]; 1 uM): 1.34; fold induction at 5 µM ([1]; 5 uM): 1.19; fold induction at 10 µM ([1]; 10 uM): 1.38; fold induction at 20 µM ([1]; 20 uM): 1.09; fold induction at 40 µM ([1]; 40 uM): 1.13; fold induction at 5 µM [2]: 0.991; fold induction at 10 µM [2]: 1.05; fold induction at 20 µM [2]: 0.85; fold induction at 40 µM [2]: 0.463; fold induction at 0.5 µM ([3]; 0.5 uM): 0.965; fold induction at 1 µM ([3]; 1 uM): 1.13; fold induction at 5 µM ([3]; 5 uM): 1.05; fold induction at 10 µM ([3]; 10 uM): 0.913; fold induction at 20 µM ([3]; 20 uM): 1.08; fold induction at 40 µM ([3]; 40 uM): 0.849
6 | O=[N+]([O-])c1cccc(S(=O)(=O)N2CCN(S(=O)(=O)N3CCOCC3)CC2)c1 [MLS000912614-01] | – | – | – | – | 1.018 | 1.166 | 0.97 | 1.012 | 0.9551 | 1.088 | 0.9534 | 0.94 | 0.7382 | 0.7798 | 1.042 | 1.024 | 1.103 | 1.055 | 0.775 | 0.7855 | –
7 | CC(NC(=O)c1cn(C)c2ccc(S(=O)(=O)N3CCCC3)cc2c1=O)c1ccccc1 (stereo not drawn) [MLS000913052-01] | – | – | – | – | 1.115 | 1.287 | 0.9154 | 0.92 | 1.116 | 1.038 | 1.076 | 1.067 | 1.113 | 1.202 | 1.073 | 0.9014 | 1.055 | 1.013 | 0.9725 | 0.8287 | –
8 | CCCCN(CCCC)CCNC(=O)c1cn(C)c2ccc(S(=O)(=O)N(C)C3CCCCC3)cc2c1=O [MLS000913117-01] | 0.9085 | 0.9155 | 0.9138 | 0.6729 | 0.8036 | 0.8262 | 0.5938 | 0.6538 | – | – | – | – | – | – | – | – | – | – | – | – | Burkin Assay in Myoblasts, signal relative to DMSO ([1]; 20 uM): 0.1952; Burkin Assay in Myoblasts, signal relative to DMSO ([1]; 40 uM): 0.05713; Burkin Assay in Myotubes, α7 integrin LacZ reporter signal relative to DMSO ([3]; 0.5 uM): 1.09; Burkin Assay in Myotubes, α7 integrin LacZ reporter signal relative to DMSO ([3]; 1 uM): 1.208; Burkin Assay in Myotubes, α7 integrin LacZ reporter signal relative to DMSO ([3]; 5 uM): 0.9655; Burkin Assay in Myotubes, α7 integrin LacZ reporter signal relative to DMSO ([3]; 10 uM): 0.6623; Burkin Assay in Myotubes, α7 integrin LacZ reporter signal relative to DMSO ([3]; 20 uM): 0.495; Burkin Assay in Myotubes, α7 integrin LacZ reporter signal relative to DMSO ([3]; 40 uM): 0.3911
9 | CC(=O)c1cccc(NC(=O)C2CCCN(S(=O)(=O)c3cccc4nonc34)C2)c1 (stereo not drawn) [MLS000937079-01] | – | – | – | – | – | – | – | – | 1.163 | 0.8958 | 1.053 | 1.147 | 1.028 | 0.9956 | 1.0515 | 0.6372 | 0.9756 | 0.8882 | 1.142 | 0.9197 | CMV-LACZ in Myotubes (β-galactosidase activity relative to DMSO) ([2]; 5 uM): 1.087; CMV-LACZ in Myotubes (β-galactosidase activity relative to DMSO) ([2]; 10 uM): 0.9923; CMV-LACZ in Myotubes (β-galactosidase activity relative to DMSO) ([2]; 20 uM): 0.9641; CMV-LACZ in Myotubes (β-galactosidase activity relative to DMSO) ([2]; 40 uM): 0.9682
